Read-outs that look alike come from different tables or passages of the source.
Tests used:
[1] = Pharmacokinetics of five main constituents in immunosuppressive mice plasma after oral administration of RA (HPLC-MS/MS); assay type: in vivo, Balb/c mice
Protocol: The maximum plasma concentration (Cmax) and the time of maximum plasma concentration (tmax) were obtained from the observed data (Table 3). The plasma concentration-time profiles for calycosin-7-O-glucoside, ononin, calycosin, formononetin and astragaloside IV are shown in Figure 4.
To quantify calycosin-7-O-glucoside, ononin, calycosin, formononetin and astragaloside IV in mice, a 10-μL IS solution was added into 50 μL of plasma and mixed for 30 s. Then, 1 mL ethyl acetate was added to the tube and vortexed for 3 min. […] Ten microliters of the supernatant were injected into the HPLC-MS/MS system.
The quantification was performed by an LC-MS/MS system, which consisted of an Agilent 1200 HPLC series system and an Agilent 6410 triple quadrupole mass spectrometer (Agilent Technol., Santa Clara, CA, USA) equipped with an electrospray ionization source. Samples were separated by a rapid resolution HT C18 column (2.1 mm × 50 mm, 1.8 μm, Agilent Technol.) at 30 °C. The mobile phase consisted of 0.1 formic acid both in methanol (A) and water (B) using a gradient elution program of 25%–50% A (0–5 min) and 50%–90% (5–10 min). The flow rate was 0.2 mL/min, and the injection volume was 10 μL. Detection was performed in the positive ion mode using multiple reaction monitoring (MRM) of the m/z 447.1/285.0 for calycosin-7-O-glucoside, m/z 431.1/269.0 for ononin, m/z 285.0/137.0 for calycosin, m/z 269.0/213.0 for formononetin, m/z 807.4/627.3 for astragaloside IV and m/z 271.1/151.0 for naringenin.

[2] = Profiling of absorbed constituents and metabolites in mice plasma after oral administration of RA (UFLC-DAD-Q-TOF-MS/MS); settings: oral RA extract 6 g/kg BW; cyclophosphamide-induced immunosuppressed Balb/c mice; plasma sampled 0.25-36 h; '-' = not detected
Protocol: The peaks that appeared at the same position in the total ion chromatograms of both the dosed mice bio-samples and the RA extract, but not in the chromatograms of the controlled mice bio-samples, were regarded as absorbed constituents [22].
Following randomization into study groups, mice (6/group/male) received intraperitoneal injection once daily of cyclophosphamide (i.p. 80 mg/kg BW) for 6 days. Additionally, the control group was injected intraperitoneally with sterile physiological saline. […] Plasma was harvested by centrifugation at 3000× g for 10 min and then kept frozen at −70 °C until analysis.
After being vortexed for 1 min, the sample was centrifuged at 13,000× g at 4 °C for 30 min. The supernate was transferred into a fresh tube and evaporated with nitrogen. Then, the residue was dissolved in a 60-μL mobile phase with vortex mixing for 3 min and centrifuged at 13,000× g for 30 min. Finally, 10 μL of the supernatant were injected into the UFLC/DAD/Q-TOF-MS/MS system.
The multiple constituents in RA and the absorbed compounds in mice plasma were identified by the ultra-fast liquid chromatography/diode-array detector/quadrupole time-of-flight tandem mass spectrometry (UFLC/DAD/Q-TOF-MS/MS) method.

[3] = male, Balb/c, mouse, in vivo, po, 6 g/kg

Source: Dosed Plasma (time points at which the compound was detected) [2] | double-peak phenomenon, time of second peak ([1]; after oral administration of RA, immunosuppressive Balb/c mice plasma) | AUC(0-t) ([1]; male, mouse, oral RA extract 6 g/kg BW, immunosuppressive Balb/c mice plasma, 0-36 h, read-out: AUC(0–t)) | AUC(0-inf) ([1]; male, mouse, oral RA extract 6 g/kg BW, immunosuppressive Balb/c mice plasma, read-out: AUC(0–∞)) | Cmax ([1]; male, mouse, oral RA extract 6 g/kg BW, immunosuppressive Balb/c mice plasma, read-out: Cmax) | half-life ([1]; male, mouse, oral RA extract 6 g/kg BW, immunosuppressive Balb/c mice plasma, read-out: t1/2z (converted)) | Tmax ([1]; male, mouse, oral RA extract 6 g/kg BW, immunosuppressive Balb/c mice plasma, read-out: tmax) | double-peak phenomenon, time of second peak ([1]; male, Balb/c, mouse, in vivo, po) | AUC(0-inf) [1, 3] | AUC(0-t) [1, 3] | Cmax [1, 3] | Tmax [1, 3] | half-life [1, 3] | Structure (SMILES) | AUC(0-t) ([1]; male, mouse, in vivo, 6 g/kg BW, oral RA, immunosuppressive Balb/c mice plasma, read-out: AUC0–t) | Cmax ([1]; male, mouse, in vivo, 6 g/kg BW, oral RA, immunosuppressive Balb/c mice plasma, read-out: Cmax) | AUC(0-t) ([1]; male, mouse, in vivo, oral RA extract 6 g/kg BW, immunosuppressive Balb/c mice plasma, 0-36 h, read-out: AUC(0–t)) | AUC(0-inf) ([1]; male, mouse, in vivo, oral RA extract 6 g/kg BW, immunosuppressive Balb/c mice plasma, read-out: AUC(0–∞)) | Cmax ([1]; male, mouse, in vivo, oral RA extract 6 g/kg BW, immunosuppressive Balb/c mice plasma, read-out: Cmax) | half-life ([1]; male, mouse, in vivo, oral RA extract 6 g/kg BW, immunosuppressive Balb/c mice plasma, read-out: t1/2z (converted)) | Tmax ([1]; male, mouse, in vivo, oral RA extract 6 g/kg BW, immunosuppressive Balb/c mice plasma, read-out: tmax)
0.25 to 24 h | 6 h | 136 ± 41.4 ng·h/mL | 155 ± 37.7 ng·h/mL | 33 ng/mL | 2.21 ± 0.92 h | 1.5 h | – | – | – | – | – | – | COc1ccc(-c2coc3cc(O)ccc3c2=O)cc1O [Peak 37, Calycosin] | – | – | – | – | – | – | –
0.25 to 24 h | – | – | – | – | – | – | 6 h | 256 ± 45.7 ng·h/mL | 233 ± 47.8 ng·h/mL | 47.9 ng/mL | 2 h | 3.99 ± 1.03 h | COc1ccc(-c2coc3cc(O)ccc3c2=O)cc1 [Peak 39, Formononetin] | – | – | – | – | – | – | –

Structure (SMILES) | Source: Dosed Plasma (time points at which the compound was detected) [2] | double-peak phenomenon, time of second peak ([1]; after oral administration of RA, immunosuppressive Balb/c mice plasma) | AUC(0-t) ([1]; male, mouse, oral RA extract 6 g/kg BW, immunosuppressive Balb/c mice plasma, 0-36 h, read-out: AUC(0–t)) | AUC(0-inf) ([1]; male, mouse, oral RA extract 6 g/kg BW, immunosuppressive Balb/c mice plasma, read-out: AUC(0–∞)) | Cmax ([1]; male, mouse, oral RA extract 6 g/kg BW, immunosuppressive Balb/c mice plasma, read-out: Cmax) | half-life ([1]; male, mouse, oral RA extract 6 g/kg BW, immunosuppressive Balb/c mice plasma, read-out: t1/2z (converted)) | Tmax ([1]; male, mouse, oral RA extract 6 g/kg BW, immunosuppressive Balb/c mice plasma, read-out: tmax) | double-peak phenomenon, time of second peak ([1]; male, Balb/c, mouse, in vivo, po) | AUC(0-inf) [1, 3] | AUC(0-t) [1, 3] | Cmax [1, 3] | Tmax [1, 3] | half-life [1, 3] | AUC(0-t) ([1]; male, mouse, in vivo, 6 g/kg BW, oral RA, immunosuppressive Balb/c mice plasma, read-out: AUC0–t) | Cmax ([1]; male, mouse, in vivo, 6 g/kg BW, oral RA, immunosuppressive Balb/c mice plasma, read-out: Cmax) | AUC(0-t) ([1]; male, mouse, in vivo, oral RA extract 6 g/kg BW, immunosuppressive Balb/c mice plasma, 0-36 h, read-out: AUC(0–t)) | AUC(0-inf) ([1]; male, mouse, in vivo, oral RA extract 6 g/kg BW, immunosuppressive Balb/c mice plasma, read-out: AUC(0–∞)) | Cmax ([1]; male, mouse, in vivo, oral RA extract 6 g/kg BW, immunosuppressive Balb/c mice plasma, read-out: Cmax) | half-life ([1]; male, mouse, in vivo, oral RA extract 6 g/kg BW, immunosuppressive Balb/c mice plasma, read-out: t1/2z (converted)) | Tmax ([1]; male, mouse, in vivo, oral RA extract 6 g/kg BW, immunosuppressive Balb/c mice plasma, read-out: tmax)
CC(C)(O)[C@@H]1CC[C@](C)(C2[C@@H](O)C[C@@]3(C)[C@@H]4C[C@H](O[C@@H]5O[C@H](CO)[C@@H](O)[C@H](O)[C@H]5O)C5C(C)(C)[C@@H](O[C@@H]6OC[C@@H](O)[C@H](O)[C@H]6O)CC[C@@]56C[C@@]46CC[C@]23C)O1 (single isomer, unassigned) [Peak 45, Astragaloside IV] | 0.25 to 24 h | – | – | – | – | – | – | – | – | – | – | – | – | 695 ± 179 ng·h/mL | 129 ng/mL | 695 ± 179 ng·h/mL | 722 ± 197 ng·h/mL | 129 ng/mL | 3.48 ± 1.15 h | 1.5 h
